Measured values from patent US20230250060A1 (IFM Due, Inc., priority 2022, published 2023).

Target: T1, STING (Homo sapiens, UniProt Q86WV6, G230A/H232R/R293Q/R71H)
T1 construct: host or cells: THP1-Dual KO-IFNAR2 cells
Assay: STING reporter assay (luciferase) in THP1-Dual KO-IFNAR2 cells stimulated with 2′3′cGAMP
Assay type: cell-based
Details: 2′3′cGAMP 15 μM final, 24 h, luciferase reporter activity, read-out: Pharmaron, THP1_IFNAR2 STING 24 h Luci Normalized: GeoMean EC50
Method in brief: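 THP1-Dual KO-IFNAR2 cells (2×10E6 cells/mL) exposed to compounds at 0.0017-100 μM final and stimulated with 2′3′cGAMP (15 μM final) delivered via Lipofectamine 2000. After 24 h at 37° C., secreted luciferase in supernatant read with QUANTI-Luc Plus; EC50 derived from luminescence.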

T1 sequence (Q86WV6 whole entry R71H/G230A/H232R/R293Q): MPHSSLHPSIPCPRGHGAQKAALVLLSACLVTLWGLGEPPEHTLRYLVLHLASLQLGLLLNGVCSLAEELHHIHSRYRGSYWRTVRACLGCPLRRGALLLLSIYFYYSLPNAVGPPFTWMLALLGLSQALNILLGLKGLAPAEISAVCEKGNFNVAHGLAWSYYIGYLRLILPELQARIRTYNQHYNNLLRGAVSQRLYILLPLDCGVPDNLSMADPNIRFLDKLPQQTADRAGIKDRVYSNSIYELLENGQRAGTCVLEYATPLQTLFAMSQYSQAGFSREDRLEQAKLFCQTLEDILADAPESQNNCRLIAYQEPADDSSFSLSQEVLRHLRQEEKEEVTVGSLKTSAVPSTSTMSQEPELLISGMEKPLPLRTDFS

EC50 [nM] | SMILES
200 to 1000 | O=C(Nc1c[nH]c2ccc(OCCc3ccc(C(F)(F)F)cc3)cc12)C12CC(F)(C1)C2 [Compound 108, 3-fluoro-N-(5-(4-(trifluoromethyl)phenethoxy)-1H-indol-3-yl)bicyclo[1.1.1]pentane-1-carboxamide]
200 to 1000 | Cn1nccc1C(=O)Nc1c[nH]c2ccc(OCC[C@@H]3C[C@@H]4CN(CC(F)(F)F)C[C@@H]4C3)cc12 [Compound 181, 1-methyl-N-(5-(2-((3aR,5r,6aS)-2-(2,2,2-trifluoroethyl)octahydrocyclopenta[c]pyrrol-5-yl)ethoxy)-1H-indol-3-yl)-1H-pyrazole-5-carboxamide]
200 to 1000 | Cn1cc(C(=O)Nc2c[nH]c3ccc(OCC[C@@H]4C[C@@H]5CN(CC(F)(F)F)C[C@@H]5C4)cc23)nn1 [Compound 242, N-(5-{2-[(3aR,5R,6aS)-2-(2,2,2-trifluoroethyl)octahydrocyclopenta[c]pyrrol-5-yl]ethoxy}-1H-indol-3-yl)-1-methyl-1H-1,2,3-triazole-4-carboxamide]

Further lines, the compound ahead of its results:

SMILES | EC50 [nM]
O=C(Nc1c[nH]c2ccc(O[C@H]3C[C@H](c4ccc(C(F)(F)F)cc4)C3)cc12)C12CC(F)(C1)C2 [Compound 133, 3-fluoro-N-(5-((1r,3r)-3-(4-(trifluoromethyl)phenyl)cyclobutoxy)-1H-indol-3-yl)bicyclo[1.1.1]pentane-1-carboxamide] | 40 to 200
O=C(Nc1c[nH]c2ccc(CCOc3ccc(C(F)(F)F)cc3)cc12)c1cncs1 [Compound 120, N-(5-(2-(4-(trifluoromethyl)phenoxy)ethyl)-1H-indol-3-yl)thiazole-5-carboxamide] | 200 to 1000
O=C(Nc1c[nH]c2ccc(O[C@H]3C[C@H](c4ccc(C(F)(F)F)cc4)C3)cc12)c1cncs1 [Compound 235, N-{5-[(1R,3R)-3-[4-(trifluoromethyl)phenyl]cyclobutoxy]-1H-indol-3-yl}-1,3-thiazole-5-carboxamide] | 200 to 1000
